Experimental data taken from US4590209A, “Alkoxy-acyl carnitines and pharmaceutical compositions containing same” (Sigma-Tau Industrie Farmaceutiche Riunite S.p.A., priority 1980, dated 1986).
Counter-ions that a name gives are not always drawn.

Key:
[1] = Acute toxicity (LD50), Weil method; conditions: mouse, in vivo, ip; mice, intraperitoneal; read-out: i.p. LD50
Text: Acute toxicity was investigated by using the method disclosed by Weil C. S. in "Tables for convenient calculation of median-effective dose (LD50 or ED50) and instructions in their use", Biometrics, 249-253, 1952.
The tolerance of the compounds under examination was investigated in mice after administration by the intraperitoneal or oral route. […] (see the Table).

rabbit isolated heart = assay: Inotropic effect on isolated rabbit heart (Langendorff) after anoxia; conditions: dose 10^-5 gl^-1, 10 minutes from the interruption of the anoxic period, percentage increase against controls
Method: Rabbit hearts isolated by the Langendorff method were perfused with oxygenized Ringer solution at 38.2° C. The isometric contractions, electrogardiogram and coronary flow were recorded using a "Battaglia-Rangoni" polygraph. By removing the oxygen from the perfusion fluid, metabolic damage was induced in the cardiac muscle, up to an 80% reduction in the cardiac contractile force.
Under these conditions of prolonged anoxia the aerobic glycolysis of the myocardium is slowed down, accompanied by the storage of acid catabolites due to both the accumulation of pyruvic acid and its conversion to lactic acid which cannot be utilized because of the depression of pyridine enzymes, such as LDH (lactodehydogenase). This has repercussions on the anaerobic glycolysis affecting an ever increasing number of enzymes, accompanied by a progressive and increasingly critical exhaustion of the myocardium. Thus a whole series of cardiac muscle fatigue levels occurs which can be observed by the behavior of the examined parameters, namely the contractile force, coronary flow, heart rate and cardiac rhythm. As soon as the contractile force was reduced by 80%, the perfusion fluid was once again oxygenized either without adding other compounds (controls) or with the addition of the compounds under examination.
In the Table there are shown the percentage value of increase against the controls.

mice = assay: Antiarrhythmic / antifibrillatory effect, aconitine-induced arrhythmia (Nwangwu et al.); type: in vivo
Method: In order to evaluate the antiarrhythmic activity of the carnitine derivatives of this invention studied with in vivo tests in addition to and in comparison with the currently employed in vitro tests, the method disclosed by Nwangwu et al. (Arch. Inc. Pharmacodyn., 1977, 229, 219) was used.
According to this method an aconitine solution is injected into the caudal vein of mice and the onset time of arrhythmia and tachycardia after 2 to 60 minutes from administration of the compounds under examination is recorded.
The antiarrhythmic activity calculated from the increase in the latency time of the onset of the arrhythmias of the treated animals in comparison with the controls, is illustrated in the Table.

adrenaline = assay: Adrenaline-antagonizing effect (adrenaline-induced mortality); type: in vivo, male Albino Swiss mice; conditions: mice, adrenaline after 30 minutes, mortality checked for 36 hours
Method: Groups of ten male Albino Swiss mice, weighing 12-22 g, were intraperitoneally administered either with the compounds of the present invention or with saline (control) and, after 30 minutes, with adrenaline (treated) at a dose capable of bringing about death to 100% of the control animals due to ventricular fibrillation and cardiac lesions ensuing from increase in frequency, pressure and oxygen uptake from the myocardium.
Mortality was checked for 36 hours and the effect of the compounds expressed as percentage of surviving animals, is shown in the Table.

Question: With COCCCC(=O)OC(CC(=O)O)C[N+](C)(C)C (centres unmarked) [R = 4-methoxybutyryl, 4-methoxybutyryl carnitine] as the molecule, how does the LD50 [1] read?
Answer: 1850 mg/kg

Question: What about the “Inotropic effect, % of controls” value (rabbit isolated heart) of the same molecule?
Answer: +85%

Question: What about the “Antifibrillatory activity, % reduction” value (mice; dose 25 mg kg^-1 i.v.) of the same molecule?
Answer: 85%

Question: And the “Antiadrenaline activity, % mortality reduction” value (adrenaline; dose 50 mg kg^-1 i.p.)?
Answer: 78%

Question: For CCOCCC(=O)OC(CC(=O)O)C[N+](C)(C)C (centres unmarked) [R = 3-ethoxypropionyl, 3-ethoxypropionyl carnitine hydrochloride], which LD50 [1] is on record?
Answer: 1300 mg/kg

Question: And the “Inotropic effect, % of controls” value (rabbit isolated heart)?
Answer: +95%

Question: And the “Antifibrillatory activity, % reduction” value (mice; dose 300 mg kg^-1 i.v.)?
Answer: 80%

Question: And the “Antiadrenaline activity, % mortality reduction” value (adrenaline; dose 450 mg kg^-1 i.p.)?
Answer: 75%
